Results published in patent publication US20250205249A1, “COMPOSITION FOR USE IN ENHANCING, BOOSTING, RESTORING AND/OR PREVENTING THE DECLINE OF COGNITIVE FUNCTIONS, ADJUVANT COMPOSITION, METHOD FOR USING THE COMPOSITION OR ADJUVANT COMPOSITION, AND KIT HAVING THE COMPOSITION OR ADJUVANT COMPOSITION” (Instytut Badawczy Innowacyjno Rozwojowy "Biotomed" Sp. Z O.O, priority 2023, published 2025).
Where two headings read alike, the source gives them in different places. Marks after values point to notes of the source that are not given here.

Key:
renal tubular epithelium = conditions: cited from earlier work
[1] = cited from earlier work; for Total daily oral dose may reach: as dietary supplement (HP-β-cyclodextrin: as oral pharmaceutical); for NOAEL (No Observed Adverse Effect Level): oral intake
[2] = system: differentiated SH-SY5Y neuroblastoma cells; test: Early apoptosis of H2O2-treated cells, coincubation variant; format: cell-based, human; conditions: 24 h coincubation with H2O2
Method: A coincubation variant was used, i.e. simultaneous administration of betulin or a reference drug and H2O2. H2O2 concentrations were EC50 or EC80 (resulting in a 50% and 80% reduction in cell viability in viability assays). Betulin concentrations were 1 μM and 5 μM, while NAC concentrations were 0.1 mM and 1 mM. The coincubation time of the test substances with H2O2 was 24 h.

[3] = system: differentiated SH-SY5Y cells; test: Neuroprotection against H2O2, preincubation variant; format: cell-based, human
Text: (§1) Human neuroblastoma cells of the SH-SY5Y lineage were chosen to perform the experiment.
(§2) Based on the literature review and research work, hydrogen peroxide H2O2 was chosen as the neurotoxin.

[4] = system: differentiated SH-SY5Y neuroblastoma cells; test: Neuroprotection against H2O2, coincubation variant; format: cell-based, human; conditions: for Increase in viability relative to cells treated with hydrogen peroxide: 24 h co-incubation, H2O2 at EC50; for Improvement in cell viability relative to the positive control: coincubation with H2O2
Text: as §1, §2

[5] = system: differentiated neuroblastoma cells (SH-SY5Y); test: Neuroprotection against H2O2, postincubation variant; format: cell-based, human; conditions: 1 h and 3 h H2O2 at EC50, then 24 h post-incubation
Method: as §1
Two time variants of incubation with hydrogen peroxide in differentiated neuroblastoma culture, i.e. 1 h and 3 h, were used in post-incubation.

[6] = system: differentiated SH-SY5Y neuroblastoma cells; conditions: XTT assay, tested 1-30 μM
Text: as §1

[7] = system: rats with Alzheimer-like neurodegeneration; test: Beam walking test (motor coordination); format: in vivo, Wistar rats; conditions: 5th day of testing, AlCl3 rats
Method: (§3) The study was conducted on Wistar rats weighing 220-250 g. All animals were subjected to two weeks of observation prior to the experiment to exclude infection. Rats were housed in standard cages, 5 individuals in each. The animals stayed in a room with a temperature of 22±2° C., air humidity 60-70% and in natural lighting (12/12 in a day/night cycle).
(§4) The Alzheimer's disease model was induced by administering aluminum chloride AICl3 (200 mg/kg body weight, i.g.) to the animals for 120 days. […] Animals were assigned to groups: control group receiving saline (sham operation), group with AlCl3 without treatment and group with AlCl3 receiving betulin (100 mg/kg/day, i.g., within the last 50% of the days of the experiment) and betulin in the complex with cyclodextrin (100 mg/kg/day, i.g., in the last 50% of the days of the experiment). Betulin or betulin in a complex with cyclodextrin was administered orally with an intragastric probe in a 2% starch emulsion, reflecting the composition of the finished preparation given in the examples of use.

APLP2 = conditions: 100 mg/kg/day, i.g.
Method: as §3
(§5) The Alzheimer's disease model was induced by administering aluminum chloride AICl3 (200 mg/kg body weight, i.g.) to the animals for 120 days. […] Animals were assigned to groups: control group receiving saline (sham operation), group with AlCl3 without treatment and group with AlCl3 receiving betulin (100 mg/kg/day, i.g., within the last 50% of the days of the experiment) and betulin in the complex with cyclodextrin (100 mg/kg/day, i.g., in the last 50% of the days of the experiment).
(§6) On the last day of the experiment, the animals were anaesthetized. Brains were quickly collected and then divided into different areas. The entire procedure was carried out in a cold room (+4° C.) on ice, and the samples were frozen in liquid nitrogen and stored in an ultra-low temperature refrigerator for further analysis.
(§7) In order to measure rat brain damage caused by aluminum chloride, biochemical determinations were carried out on the collected brain tissue fragments.

Aβ1-42 protein = conditions: 100 mg/kg/day, i.g.
Method: as §3, §5, §6, §7

TNFα = conditions: 100 mg/kg/day, i.g.
Method: as §3, §5, §6, §7

[8] = system: oxidative stress parameters (GSH, GSSG, G6PD, glutathione reductase, glutathione-S-transferase, GPO); test: Glutathione content and antioxidant enzymes activities in brain hemispheres during Al-intoxication; format: in vivo, Wistar rats
Text: Influence of Betulin on Oxidative Stress Parameters in Rats with Alzheimer-Like Neurodegeneration

[9] = system: rats with Alzheimer-like neurodegeneration; conditions: Morris water maze, 5th day of testing; AlCl3 rats
Method: as §3, §4

[10] = rat hippocampal homogenate, AlCl3 model
[11] = brain hemispheres, Al-intoxication

RM-β-cyclodextrin
Renal toxicity after parenteral administration (in words) (renal tubular epithelium; parenteral administration): renal toxicity at relatively low doses

OC[C@H]1O[C@@H]2O[C@H]3[C@H](O)[C@@H](O)[C@@H](O[C@H]4[C@H](O)[C@@H](O)[C@@H](O[C@H]5[C@H](O)[C@@H](O)[C@@H](O[C@H]6[C@H](O)[C@@H](O)[C@@H](O[C@H]7[C@H](O)[C@@H](O)[C@@H](O[C@H]1[C@H](O)[C@H]2O)O[C@@H]7CO)O[C@@H]6CO)O[C@@H]5CO)O[C@@H]4CO)O[C@@H]3CO [α-cyclodextrin]
Total daily oral dose may reach [1]: 6000 mg/day | Renal toxicity after parenteral administration (in words) (renal tubular epithelium; rat, in vivo): renal toxicity at relatively low doses

CC(=O)N[C@@H](CS)C(=O)O [NAC, N-acetyl-L-cysteine, reference compound]
Induction of early apoptosis (percentage of apoptotic cells) ([2]; NAC 0.1 mM): 12.2% | Induction of early apoptosis (percentage of apoptotic cells) ([2]; NAC 1 mM): 12.0% | Protective effect against H2O2 (in words) ([3]; 24 h preincubation, NAC 2.5 mM to 0.01 mM, H2O2 at EC50): statistically significant (####p<0.001) protective effect on cells (no decrease in viability) | Increase in viability relative to cells treated with hydrogen peroxide ([4]; NAC 0.01 mM): 12% | Increase in viability relative to cells treated with hydrogen peroxide ([4]; NAC 0.1 mM): 40% | Increase in viability relative to cells treated with hydrogen peroxide ([4]; NAC 1 mM): 54% | Protective effect after H2O2 treatment (in words) [5]: induced a protective effect in a NAC concentration-dependent manner

OC[C@H]1O[C@@H]2O[C@H]3[C@H](O)[C@@H](O)[C@@H](O[C@H]4[C@H](O)[C@@H](O)[C@@H](O[C@H]5[C@H](O)[C@@H](O)[C@@H](O[C@H]6[C@H](O)[C@@H](O)[C@@H](O[C@H]7[C@H](O)[C@@H](O)[C@@H](O[C@H]8[C@H](O)[C@@H](O)[C@@H](O[C@H]9[C@H](O)[C@@H](O)[C@@H](O[C@H]1[C@H](O)[C@H]2O)O[C@@H]9CO)O[C@@H]8CO)O[C@@H]7CO)O[C@@H]6CO)O[C@@H]5CO)O[C@@H]4CO)O[C@@H]3CO [γ-cyclodextrin]
Total daily oral dose may reach [1]: 10,000 mg/day | NOAEL (No Observed Adverse Effect Level) [1]: 100 mg/kg/day | Dose showing only reversible vacuolation in the renal tubular epithelium (renal tubular epithelium; rats, high doses): > 600 mg/kg

C=C(C)[C@@H]1CC[C@]2(CO)CC[C@]3(C)[C@H](CC[C@@H]4[C@@]5(C)CC[C@H](O)C(C)(C)[C@@H]5CC[C@]43C)[C@@H]12 [betulin]
Percentage of apoptotic cells ([2]; betulin 1 μM): 2.7% | Percentage of apoptotic cells ([2]; betulin 5 μM): 2.5% | Protective effect against H2O2 (in words) ([3]; betulin 1, 2, 5 and 10 μM, toxin at EC50): statistically significant protective effect | Protective effect against H2O2 (in words) ([3]; betulin 15 and 20 μM): no protective effect | Concentration above which a cytotoxic effect is induced (viability below the 70% threshold) [6]: > 20 µM | Percent of successful trials [7]: 100^b % | Time to reach the shelter [7]: 18.6 ± 3.6^ab seconds | Improvement in cell viability relative to the positive control ([4]; betulin 1 μM): 27% | Improvement in cell viability relative to the positive control ([4]; betulin 5 μM): 18% | Protective effect after H2O2 treatment (in words) [5]: no increase in viability relative to the positive control | Effect on APLP2 concentration in hippocampal homogenates (in words) (APLP2): reduced the concentration of APLP2 | APLP2 (APLP2; rat brain hippocampus homogenate, AlCl3 model): 588.1 ± 36.4^ab pg/100 mg | Effect on β-amyloid concentration in hippocampal homogenates (in words) (Aβ1-42 protein): reduced the concentration of β-amyloid | Protein Aβ1-42 (Aβ1-42 protein; [10]): 83.25 ± 6.40^ab pg/100 mg | Effect on TNFα concentration in hippocampal homogenates (in words) (TNFα): reduced the concentration of TNFα | TNF-α (TNFα; [10]): 5.88 ± 0.39 ^b pg/mg | Effect on GSH, GR and GSTs activity (in words) ([8]; animals with induced AD): significant increase in the activity of all enzymes | Effect on GSSG, G6PD and GPO activity (in words) ([8]; animals with induced AD): significant decrease in the activity of these enzymes | G6PD [8, 11]: 28.61 ± 1.62^b nmol NADPH/min/mg protein | GPO [8, 11]: 33.63 ± 2.09^b umol GSH/min/mg protein | GSH [8, 11]: 26.09 ± 2.19^b nmol/mg protein | GSSG [8, 11]: 0.112 ± 0.002^b nmol/mg protein | Glutathione reductase [8, 11]: 11.59 ± 1.39 nmol NADPH/min/mg protein | Glutathione-S-transferase [8, 11]: 129.90 ± 10.45^b nmol CDNB/min/mg protein | Time spent in a target quadrant [9]: 26 ± 8^ab seconds | Time to reach the platform [9]: 38 ± 7^b seconds

OC[C@H]1O[C@@H]2O[C@H]3[C@H](O)[C@@H](O)[C@@H](O[C@H]4[C@H](O)[C@@H](O)[C@@H](O[C@H]5[C@H](O)[C@@H](O)[C@@H](O[C@H]6[C@H](O)[C@@H](O)[C@@H](O[C@H]7[C@H](O)[C@@H](O)[C@@H](O[C@H]8[C@H](O)[C@@H](O)[C@@H](O[C@H]1[C@H](O)[C@H]2O)O[C@@H]8CO)O[C@@H]7CO)O[C@@H]6CO)O[C@@H]5CO)O[C@@H]4CO)O[C@@H]3CO [β-cyclodextrin]
Total daily oral dose may reach [1]: 500 mg/day | NOAEL (No Observed Adverse Effect Level) [1]: 10 mg/kg/day

HP-β-cyclodextrin
Total daily oral dose may reach [1]: 8000 mg/day
